Experimental findings from ChEMBL document CHEMBL3627608, “Crystal structures of human RIP2 kinase catalytic domain complexed with ATP-competitive inhibitors: Foundations for understanding inhibitor selectivity” (Bioorg Med Chem, 2015) are described below.

The target in experiment [1] is Homeodomain-interacting protein kinase 2 (Homo sapiens) (UniProt Q9H2X6). As to the kind of experiment: Inhibition of HIPK2 (unknown origin) at 10 uM after 120 mins P33 radiolabeled kinase activity assay.
Experiment [2] has as its target Mitogen-activated protein kinase 11 (Homo sapiens) (UniProt Q15759). As to the kind of experiment: Inhibition of P38beta (unknown origin) at 10 uM after 120 mins P33 radiolabeled kinase activity assay.
The target of experiment [3] is Platelet-derived growth factor receptor alpha (Homo sapiens) (UniProt P16234). Kind of experiment: Inhibition of PDGFRalpha (unknown origin) at 10 uM after 120 mins P33 radiolabeled kinase activity assay.
The species entered for experiment [4] is Homo sapiens. As to the kind of experiment: Inhibition of PKG1alpha (unknown origin) at 10 uM after 120 mins P33 radiolabeled kinase activity assay.
In experiment [5] the target is Tyrosine-protein kinase Lck (Homo sapiens) (UniProt P06239). Kind of experiment: Inhibition of LCK (unknown origin) at 10 uM after 120 mins P33 radiolabeled kinase activity assay.
In experiment [6] the target is T1, MAP kinase-activated protein kinase 5 (Homo sapiens) (UniProt Q8IW41).
T1 sequence (whole entry): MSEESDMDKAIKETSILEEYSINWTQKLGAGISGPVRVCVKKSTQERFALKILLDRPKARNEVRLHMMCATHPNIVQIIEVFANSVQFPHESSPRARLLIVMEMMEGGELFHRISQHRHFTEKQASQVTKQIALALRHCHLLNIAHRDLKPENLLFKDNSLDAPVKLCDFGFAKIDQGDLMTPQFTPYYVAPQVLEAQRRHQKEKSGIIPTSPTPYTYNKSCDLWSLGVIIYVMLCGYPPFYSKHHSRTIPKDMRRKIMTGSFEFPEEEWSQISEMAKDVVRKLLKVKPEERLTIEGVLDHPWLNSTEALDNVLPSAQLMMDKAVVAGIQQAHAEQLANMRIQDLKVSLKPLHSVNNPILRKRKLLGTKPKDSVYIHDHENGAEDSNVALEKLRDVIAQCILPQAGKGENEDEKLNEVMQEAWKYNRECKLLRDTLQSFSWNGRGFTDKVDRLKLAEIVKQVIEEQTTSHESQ
As to the kind of experiment: Inhibition of MAPKAPK5 (unknown origin) at 10 uM after 120 mins P33 radiolabeled kinase activity assay.

The target of experiment [7] is MAP/microtubule affinity-regulating kinase 3 (Homo sapiens) (UniProt P27448). As to the kind of experiment: Inhibition of MARK3 (unknown origin) at 10 uM after 120 mins P33 radiolabeled kinase activity assay.
Experiment [8] addresses Ribosomal protein S6 kinase alpha-2 (Homo sapiens) (UniProt Q15349). Kind of experiment: Inhibition of RSK3 (unknown origin) at 10 uM after 120 mins P33 radiolabeled kinase activity assay.
The target of experiment [9] is SRSF protein kinase 2 (Homo sapiens) (UniProt P78362). Kind of experiment: Inhibition of SRPK2 (unknown origin) at 10 uM after 120 mins P33 radiolabeled kinase activity assay.
Experiment [10] concerns the target Serine/threonine-protein kinase 33 (Homo sapiens) (UniProt Q9BYT3). Kind of experiment: Inhibition of STK33 (unknown origin) at 10 uM after 120 mins P33 radiolabeled kinase activity assay.
Experiment [11] deals with Serine/threonine-protein kinase 38 (Homo sapiens) (UniProt Q15208). As to the kind of experiment: Inhibition of STK38 (unknown origin) at 10 uM after 120 mins P33 radiolabeled kinase activity assay.
In experiment [12] the target is T2, Mitogen-activated protein kinase kinase kinase 7 (Homo sapiens) (UniProt O43318).
T2 sequence (whole entry): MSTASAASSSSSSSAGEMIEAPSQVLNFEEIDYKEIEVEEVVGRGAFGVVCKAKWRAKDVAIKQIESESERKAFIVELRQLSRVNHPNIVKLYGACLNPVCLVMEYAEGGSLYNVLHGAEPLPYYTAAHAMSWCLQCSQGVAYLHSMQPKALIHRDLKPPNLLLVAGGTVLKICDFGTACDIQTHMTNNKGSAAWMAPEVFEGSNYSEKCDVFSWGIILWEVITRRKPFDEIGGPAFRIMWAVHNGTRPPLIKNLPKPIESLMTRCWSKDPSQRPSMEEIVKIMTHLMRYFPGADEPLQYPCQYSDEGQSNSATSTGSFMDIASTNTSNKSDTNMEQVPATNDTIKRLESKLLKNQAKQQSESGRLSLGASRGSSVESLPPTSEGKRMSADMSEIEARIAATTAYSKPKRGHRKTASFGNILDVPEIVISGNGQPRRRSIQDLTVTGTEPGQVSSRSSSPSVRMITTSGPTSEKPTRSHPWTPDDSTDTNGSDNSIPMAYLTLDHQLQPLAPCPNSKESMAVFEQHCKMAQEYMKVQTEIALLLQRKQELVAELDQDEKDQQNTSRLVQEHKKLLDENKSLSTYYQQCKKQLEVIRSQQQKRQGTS
As to the kind of experiment: Inhibition of TAK1 (unknown origin) at 10 uM after 120 mins P33 radiolabeled kinase activity assay.

Experiment [13] has as its target T3, Activin receptor type-1 (Homo sapiens) (UniProt Q04771).
T3 sequence (whole entry): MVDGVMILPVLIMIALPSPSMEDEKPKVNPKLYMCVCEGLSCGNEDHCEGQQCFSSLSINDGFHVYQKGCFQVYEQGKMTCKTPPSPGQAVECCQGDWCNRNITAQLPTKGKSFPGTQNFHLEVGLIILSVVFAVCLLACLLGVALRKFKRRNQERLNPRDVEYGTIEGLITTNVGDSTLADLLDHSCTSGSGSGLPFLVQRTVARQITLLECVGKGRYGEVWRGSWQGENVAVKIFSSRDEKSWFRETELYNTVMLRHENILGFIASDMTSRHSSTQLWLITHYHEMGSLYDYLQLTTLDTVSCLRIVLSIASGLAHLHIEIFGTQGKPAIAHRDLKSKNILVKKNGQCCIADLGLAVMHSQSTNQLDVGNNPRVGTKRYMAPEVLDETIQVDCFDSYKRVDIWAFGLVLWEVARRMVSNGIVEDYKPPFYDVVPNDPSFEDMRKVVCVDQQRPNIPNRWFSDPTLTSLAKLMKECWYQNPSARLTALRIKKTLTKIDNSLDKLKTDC
Kind of experiment: Inhibition of ALK2 (unknown origin) at 10 uM after 120 mins P33 radiolabeled kinase activity assay.

Sequence of Ribosomal protein S6 kinase alpha-2 (Homo sapiens) (Q15349 whole entry): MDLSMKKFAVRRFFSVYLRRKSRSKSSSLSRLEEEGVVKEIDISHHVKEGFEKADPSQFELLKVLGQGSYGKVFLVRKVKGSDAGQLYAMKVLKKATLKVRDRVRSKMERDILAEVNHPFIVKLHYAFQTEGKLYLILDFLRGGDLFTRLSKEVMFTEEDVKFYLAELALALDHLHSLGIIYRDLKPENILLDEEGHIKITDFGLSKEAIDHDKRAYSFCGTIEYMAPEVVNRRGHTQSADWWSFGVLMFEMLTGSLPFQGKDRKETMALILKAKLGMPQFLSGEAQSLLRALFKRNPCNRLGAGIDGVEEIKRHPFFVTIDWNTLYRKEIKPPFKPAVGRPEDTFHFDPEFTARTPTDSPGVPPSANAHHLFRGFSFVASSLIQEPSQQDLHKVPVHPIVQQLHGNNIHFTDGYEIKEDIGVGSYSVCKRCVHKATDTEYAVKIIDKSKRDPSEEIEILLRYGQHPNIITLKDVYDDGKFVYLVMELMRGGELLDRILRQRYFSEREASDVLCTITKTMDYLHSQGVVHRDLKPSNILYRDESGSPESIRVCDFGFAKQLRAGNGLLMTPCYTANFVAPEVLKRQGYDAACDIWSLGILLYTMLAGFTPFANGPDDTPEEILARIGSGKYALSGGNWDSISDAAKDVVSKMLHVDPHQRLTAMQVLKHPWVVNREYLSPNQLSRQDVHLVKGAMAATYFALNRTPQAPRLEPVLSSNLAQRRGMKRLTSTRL
Sequence of Platelet-derived growth factor receptor alpha (Homo sapiens) (P16234 whole entry): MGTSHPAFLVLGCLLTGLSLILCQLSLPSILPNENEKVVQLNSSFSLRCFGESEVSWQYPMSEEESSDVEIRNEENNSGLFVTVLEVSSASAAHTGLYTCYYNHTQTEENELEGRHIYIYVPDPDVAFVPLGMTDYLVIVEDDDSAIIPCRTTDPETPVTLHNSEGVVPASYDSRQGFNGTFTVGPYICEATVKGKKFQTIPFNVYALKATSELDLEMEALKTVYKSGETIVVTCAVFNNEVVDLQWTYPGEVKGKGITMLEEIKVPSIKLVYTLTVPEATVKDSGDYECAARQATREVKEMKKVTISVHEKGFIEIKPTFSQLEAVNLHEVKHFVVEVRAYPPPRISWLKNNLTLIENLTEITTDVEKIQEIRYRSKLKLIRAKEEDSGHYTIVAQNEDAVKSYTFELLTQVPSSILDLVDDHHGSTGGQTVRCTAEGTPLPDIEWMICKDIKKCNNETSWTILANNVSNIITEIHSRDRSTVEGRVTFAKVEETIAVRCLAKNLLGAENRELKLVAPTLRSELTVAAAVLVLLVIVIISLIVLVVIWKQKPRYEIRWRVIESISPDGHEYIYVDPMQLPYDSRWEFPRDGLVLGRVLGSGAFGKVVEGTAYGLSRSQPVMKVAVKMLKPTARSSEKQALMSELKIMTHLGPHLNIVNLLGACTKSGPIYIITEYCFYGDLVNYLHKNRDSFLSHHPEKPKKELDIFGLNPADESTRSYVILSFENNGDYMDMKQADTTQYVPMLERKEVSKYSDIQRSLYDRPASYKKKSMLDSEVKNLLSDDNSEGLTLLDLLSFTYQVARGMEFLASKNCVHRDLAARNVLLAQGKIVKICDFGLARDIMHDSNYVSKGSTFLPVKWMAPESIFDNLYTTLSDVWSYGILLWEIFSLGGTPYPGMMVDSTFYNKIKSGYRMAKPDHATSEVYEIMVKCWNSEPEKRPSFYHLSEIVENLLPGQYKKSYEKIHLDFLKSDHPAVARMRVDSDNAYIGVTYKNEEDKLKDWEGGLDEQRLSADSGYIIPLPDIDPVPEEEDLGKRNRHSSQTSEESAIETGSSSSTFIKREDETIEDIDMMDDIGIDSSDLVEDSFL
Sequence of MAP/microtubule affinity-regulating kinase 3 (Homo sapiens) (P27448 whole entry, looked up): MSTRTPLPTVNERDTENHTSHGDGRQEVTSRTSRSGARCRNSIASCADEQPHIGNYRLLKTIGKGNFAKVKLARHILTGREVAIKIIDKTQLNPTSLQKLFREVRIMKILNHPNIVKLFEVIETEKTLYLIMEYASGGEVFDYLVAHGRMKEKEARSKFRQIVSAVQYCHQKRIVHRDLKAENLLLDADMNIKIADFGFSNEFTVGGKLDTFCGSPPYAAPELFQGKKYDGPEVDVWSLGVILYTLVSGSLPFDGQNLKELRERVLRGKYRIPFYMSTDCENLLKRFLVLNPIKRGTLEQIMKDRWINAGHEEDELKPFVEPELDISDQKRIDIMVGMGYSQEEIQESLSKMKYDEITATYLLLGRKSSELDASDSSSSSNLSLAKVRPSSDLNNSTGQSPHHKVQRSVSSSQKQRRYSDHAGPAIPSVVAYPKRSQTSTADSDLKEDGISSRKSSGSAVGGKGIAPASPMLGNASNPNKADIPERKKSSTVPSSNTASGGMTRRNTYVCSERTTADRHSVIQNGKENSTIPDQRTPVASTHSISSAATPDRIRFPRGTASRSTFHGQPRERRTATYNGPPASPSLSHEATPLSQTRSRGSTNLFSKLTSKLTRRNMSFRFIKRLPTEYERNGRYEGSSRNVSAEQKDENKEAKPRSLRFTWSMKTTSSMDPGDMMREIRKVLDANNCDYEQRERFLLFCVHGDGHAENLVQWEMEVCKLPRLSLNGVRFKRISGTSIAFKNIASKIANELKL
Sequence of Mitogen-activated protein kinase 11 (Homo sapiens) (Q15759 whole entry): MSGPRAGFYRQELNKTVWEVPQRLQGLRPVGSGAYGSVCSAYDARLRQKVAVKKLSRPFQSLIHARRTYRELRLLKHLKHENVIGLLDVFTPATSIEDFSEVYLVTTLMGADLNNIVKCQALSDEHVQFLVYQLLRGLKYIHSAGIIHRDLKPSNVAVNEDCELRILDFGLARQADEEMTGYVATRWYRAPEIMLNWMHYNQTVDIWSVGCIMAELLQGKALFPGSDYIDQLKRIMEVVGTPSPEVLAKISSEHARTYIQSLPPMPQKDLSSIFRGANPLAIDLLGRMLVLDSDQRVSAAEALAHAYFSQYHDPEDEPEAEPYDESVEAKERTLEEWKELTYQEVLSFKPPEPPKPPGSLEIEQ
Sequence of SRSF protein kinase 2 (Homo sapiens) (P78362 whole entry, looked up): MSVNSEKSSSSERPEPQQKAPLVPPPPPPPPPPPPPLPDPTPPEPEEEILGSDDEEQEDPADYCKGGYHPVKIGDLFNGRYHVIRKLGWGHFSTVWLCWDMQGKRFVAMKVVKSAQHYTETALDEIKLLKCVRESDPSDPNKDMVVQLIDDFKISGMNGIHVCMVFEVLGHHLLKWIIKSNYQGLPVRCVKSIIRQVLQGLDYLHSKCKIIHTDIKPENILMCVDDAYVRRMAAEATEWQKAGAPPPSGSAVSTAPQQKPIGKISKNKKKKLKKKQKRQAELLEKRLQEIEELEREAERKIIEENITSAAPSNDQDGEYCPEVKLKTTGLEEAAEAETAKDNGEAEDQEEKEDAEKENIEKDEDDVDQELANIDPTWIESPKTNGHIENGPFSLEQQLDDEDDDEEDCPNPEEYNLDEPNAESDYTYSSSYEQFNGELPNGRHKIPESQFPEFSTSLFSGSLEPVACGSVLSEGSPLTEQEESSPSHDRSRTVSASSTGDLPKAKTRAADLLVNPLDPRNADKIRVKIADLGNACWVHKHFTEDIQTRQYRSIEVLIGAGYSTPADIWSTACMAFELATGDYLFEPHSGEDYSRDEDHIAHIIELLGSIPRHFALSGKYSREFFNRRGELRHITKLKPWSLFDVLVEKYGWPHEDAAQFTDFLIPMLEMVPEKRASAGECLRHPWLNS
Sequence of Serine/threonine-protein kinase 33 (Homo sapiens) (Q9BYT3 whole entry, looked up): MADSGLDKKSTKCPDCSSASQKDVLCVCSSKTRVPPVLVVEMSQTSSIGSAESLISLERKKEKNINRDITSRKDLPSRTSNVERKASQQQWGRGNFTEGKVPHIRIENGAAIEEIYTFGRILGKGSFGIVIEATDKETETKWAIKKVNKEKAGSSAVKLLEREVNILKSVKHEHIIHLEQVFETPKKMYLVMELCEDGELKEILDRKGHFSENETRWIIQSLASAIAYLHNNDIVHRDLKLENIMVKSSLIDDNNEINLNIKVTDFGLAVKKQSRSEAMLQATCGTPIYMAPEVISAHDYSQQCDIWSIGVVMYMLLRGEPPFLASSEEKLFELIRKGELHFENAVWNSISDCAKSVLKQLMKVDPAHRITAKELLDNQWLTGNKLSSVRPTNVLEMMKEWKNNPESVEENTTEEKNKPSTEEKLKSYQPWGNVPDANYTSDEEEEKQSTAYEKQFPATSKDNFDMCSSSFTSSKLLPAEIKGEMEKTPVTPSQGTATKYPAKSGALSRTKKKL
Sequence of Serine/threonine-protein kinase 38 (Homo sapiens) (Q15208 2-465 limits assumed): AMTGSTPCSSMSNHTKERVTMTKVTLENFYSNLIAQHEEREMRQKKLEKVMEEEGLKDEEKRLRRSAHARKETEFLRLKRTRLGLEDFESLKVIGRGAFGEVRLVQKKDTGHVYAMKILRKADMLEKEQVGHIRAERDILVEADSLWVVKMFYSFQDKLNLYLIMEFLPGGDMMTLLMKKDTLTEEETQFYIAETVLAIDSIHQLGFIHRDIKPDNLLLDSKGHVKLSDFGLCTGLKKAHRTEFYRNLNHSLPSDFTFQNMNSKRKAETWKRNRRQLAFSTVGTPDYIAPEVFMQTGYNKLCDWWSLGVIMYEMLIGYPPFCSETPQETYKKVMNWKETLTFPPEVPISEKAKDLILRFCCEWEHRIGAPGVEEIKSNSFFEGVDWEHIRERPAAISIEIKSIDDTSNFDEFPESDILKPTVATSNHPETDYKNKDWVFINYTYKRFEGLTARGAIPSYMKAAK

The inhibition is the drop in the measured response relative to a control, in per cent. On to `CS(=O)(=O)c1cccc(Nc2nccc(-c3sc(N4CCOCC4)nc3-c3cccc(NS(=O)(=O)c4c(F)cccc4F)c3)n2)c1`, for which the inhibition is 91.4% in [1]; -5.84% in [2]; 94.1% in experiment [3]; 9.43% in [4]; 99.9% in experiment [5]; 4.25% in [6]. Further, the inhibition in experiment [7] worked out at 4.8%; in experiment [8] it was 67.5%; in experiment [9], 17.7%; in [10] it was 29.3%; in experiment [11] it was 27.4%; in experiment [12], 83%. Also, the inhibition in [13] was found to be 85.2%.

On to `CC(C)(C)c1cc(NC(=O)Nc2ccc(Oc3ccncc3)cc2)no1`, for which the inhibition in [1] is 18.1%; in experiment [2], 96.2%; in experiment [3], 98.3%; in experiment [4], 7.43%; in experiment [5], 95.3%; in experiment [6], -1.68%. For the same compound, the inhibition was -1.36% in experiment [7]; 53.4% in experiment [8]; 18% in experiment [9]; 36.7% in experiment [10]; 3.87% in experiment [11]; 83.8% in [12]. Besides, in experiment [13], the inhibition was -3.19%.

As for `COCCNC(=O)c1ccc2c(c1)nc(-c1cnc(-c3ccc(Cl)cc3)[nH]1)n2CCOC`, the inhibition was -4.82% in experiment [1]; 10% in [2]; 17.2% in experiment [3]; -4.79% in [4]; 52.8% in [5]; 5.26% in experiment [6]. Besides, the inhibition in [7] was -3.77%; in [8], 11.2%; in [9], 7.04%; in experiment [10], 10.6%; in experiment [11], 3.88%; in [12], 6.56%. Also, the inhibition in [13] was determined as 10.4%.
